# Test results published in patent US9314471B2, “Methods of preparing pharmaceutical solid state forms” (NeurMedix, Inc., priority 2008, dated 2016).
# How the values were obtained:
# [1] = Interconversion of crystalline forms in methanol-water (XRPD); assay type: physicochemical
# Method: Form III Compound 1 (77.1 mg) was added to a glass vial, followed by MeOH (0.8 mL) and a stirring bar. The sample was placed in an oil bath at 65° C. and solids completely dissolved. Additional Form III was added so that excess solids remained and the mixture stirred for about 20 minutes. Additional MeOH (0.2 mL) was added and the mixture was hot filtered into a clean vial using a 0.2 μm nylon filter, and the filtrate was then placed in the oil bath at 65° C. Water (1 mL) was added and the mixture cooled to 20° C. over 2 hours. […] Form I was also produced from a slurry of Form III in 1:1 methanol water or 3:1 methanol:water that is seeded with samples having XRPD patterns of Form IV, Form V, Form VI, Form VII and Form VIII and stirred for 5 da at about 65° C. or 7 da at about 5° C.
# [2] = Vapor stressing of melt-quenched amorphous Compound 1; assay type: physicochemical
# Method: Amorphous compound 1, with varying degrees of crystallinity was also obtained form melt-quenching Form III according to the following procedure. Form III was lightly crushed with a spatula in a vial that was then placed in an oilbath set at 175° C. A nitrogen stream was run through the vial and the vial kept in the oilbath until the sample had melted. The vial was then removed and quickly placed in a bath containing dry ice with acetone. The sample was placed in a freezer under desiccant and analyzed by XRPD for crystallinity.
# The propensity of amorphous material to convert to various crystalline forms was studied by vapor stressing melt-quenched Compound 1, prepared from Form III by the immediately preceding procedure.
# [3] = Reanalysis of crystalline forms after prolonged standing; assay type: physicochemical
# Source text: Thus, crystalline Form V of 17α-ethynyl-androstane-3α,17β-diol is an anhydrate (i.e., has no solvent in its crystal structure).
# Prior to dissolution of Form VI for NMR analysis, the Form VI sample was washed with CCl4 to remove non-specifically absorbed surface solvent. Proton NMR spectroscopy thus indicates Form VI is a dioxane solvate, which is supported by the DTA/TGA data, and is most likely a mono dioxane solvate based upon integration of the δ 3.64 ppm resonance and the weight loss in TGA. After prolonged standing at ambient temperature and pressure, the Form VI sample was reanalyzed by DTA/TGA and proton NMR. […] Thus, desolvation of Form VI may occur if storage precautions are inadequate and may be accompanied by a polymorphic transition to a more thermodynamically stable form such as Form III.
# Thus, crystalline Form VII of 17α-ethynyl-androstane-3α,17β-diol is most likely an anhydrate (i.e., has no solvent in its crystal structure).
# LNCaP tumor cells = assay: AED-stimulated LNCaP tumor model, effect of dose on tumor incidence; assay type: in vivo, SCID mice; settings: for mean tumor volume in the animals that developed tumors: 28 days, vehicle 157 mm^3; for tumor incidence (compared to vehicle): daily for 28 days from 24 hours after tumor inoculation
# Method: (§1) Castrated SCID mice (six week-old) were implanted with a 5 mg AED, 60-day time-release pellet (Innovative Labs, Sarasota Fla.). After three days, all mice were injected subcutaneously in the right flank with 100 μL of 7.5×10^6 LNCaP tumor cells in phenol red-free RPMI mixed 1:1 with Matrigel. Tumor volumes were measured weekly and calculated as a2×b/2 with a being the width and b the length of the tumor in millimeters (reported as mm^3).
# To test the effect of dose on tumor incidence, a total of 48 castrated male SCID mice were implanted with LNCaP tumor cells as described, and the mice were randomly divided into 4 groups of 12 animals each to provide vehicle control (30% cyclodextrin-sulfobutylether in water) group and treatment groups using 4 mg/mouse/day, 1 mg/mouse/day, and 0.4 mg/mouse/day). Treatment groups used a liquid formulation prepared by dissolving a solid state form of 17α-ethynyl-androst-5-ene-3α,17β-diol (Compound 1) in vehicle, which provided 20 mg Compound 1 per mL in 30% cyclodextrin-sulfobutylether in water. The liquid formulation so prepared was administered 24 hours after tumor inoculation as a 200 μL intraperitoneal (ip) injection. All animals were dosed daily for 28 consecutive days and tumor volumes were measured weekly.
# (§2) Statistical analysis: Time to first measurable tumor volume was analyzed via Kaplan-Meier product limit estimates, with the exact log-rank test applied to test for the significance of the difference. Reduction of tumor volume is defined as a reduction in volume of at least 20% of the baseline volume, persisting to the end of the study. To detect the difference between active and control group, Fisher's exact test and exact 95% Cl for the difference was applied. A tumor of non-measurable volume is a tumor that, with the methodology at hand, measures 0 to the end of the study. The growth rate of a tumor was also analyzed via the mixed model.
# established LNCaP tumors = assay: AED-stimulated LNCaP tumor model, effect on established LNCaP tumors; assay type: in vivo, SCID mice; settings: 4 mg/mouse/day once a day for three weeks
# Method: as §1
# To test the effect of a Compound 1 on established LNCaP tumors, 36 castrated SCID mice received AED pellets and were inoculated with LNCaP tumors and monitored as described above. Once the tumors reach 15-25 mm^3, the mice were paired by tumor volume, and each mouse in a pair was assigned to the vehicle or 4 mg/mouse/day Compound 1 group. Animals were dosed once a day for three weeks.
# as §2
# LNCaP Cells [4] = assay: Cell cycle analysis of LNCaP cells (DAPI, cytometer); assay type: cell-based; settings: 50 nM, four days, LNCaP cells in FBS or CSS
# Method: (§3) LNCaP Cells (5×10^5) were seeded in phenol-red free RPMI with 5% hormone depleted charcoal stripped serum (CSS) in 6-well plates and allowed to adhere overnight, then cultured in fetal bovine serum (FBS) or CSS with or without 50 nM Compound 1 for four days. At the end of the incubation period, floating and adherent cells were harvested for cell cycle analysis. LNCaP cells were resuspended in a […] solution of 4,6-diamidino-2-phenylindole (DAPI) and 0.1% NP-40 in a Tris-buffered saline solution (pH 7.0) and analyzed using an Influx cytometer (Cytopiea, Seattle, Wash.). Analyses were performed with MultiCycle software (Phoenix Flow Systems, San Diego, Calif.). The Annexin V-FITC Apoptosis Detection Kit (Calbiochem, La Jolla, Calif.) was used according to the instructions of the manufacturer to detect apoptosis.
# LNCaP Cells [5] = assay: Annexin V-FITC apoptosis detection in LNCaP cells; assay type: cell-based; settings: 50 nM, four days
# Method: as §3
# [6] = test system: breast tumors induced by the administration of the carcinogen N-methyl-nitrosourea (NMU); assay: MNU stimulated breast tumor model; assay type: in vivo, Lewis rats
# Source text: The following study determined the effect of a formulation prepared with a polymorph of 17α-ethynyl-androst-5-ene-3α,17β-diol (Crystalline Form III of Compound 1) on the rate of growth and incidence of breast tumors induced by the administration of the carcinogen N-methyl-nitrosourea (NMU). Additionally, the activity of Compound 1 was compared to TAMOXIFEN™ ((Z)-2-[4-(1,2-diphenylbut-1-enyl)phenoxy]-N,N-dimethyl-ethanamine), ARIMIDEX™ (anastrozole) and TAXOTERE™ (docetaxel), which are drugs currently used to treat breast cancer.
# Seven week old female Lewis rats (150 animals, 104 required for the study) were anesthetized with isoflurane for NMU administration. NMU was the administered ip. at a dose of 50 mg/Kg. Mammary tumors that developed were measured using a vernier caliper with two axes of the tumor measured in cm. Treatment commenced using a liquid formulation of Compound 1, prepared by dissolving crystalline […] in vehicle, when rats have a tumor volume of 0.5 cm×0.5 cm (at about 12-20 week of age). Treatment continued for 28 consecutive days, followed by 28 days of observation.
# The experimental groups were Negative control group (no treatment), Vehicle control group (30% cyclodextrin-sulfobutylether in water), two treatment groups (8 mg/rat and 4 mg/rat), three standard therapy groups using an estrogen blocker (TAMOXIFEN™), an aromatase inhibitor (ARIMIDEX™), a cytotoxic agent (TAXOTERE™) and a combination treatment group receiving Compound 1 (8 mg/kg) and TAXOTERE™.
compound,measurement,setting,value
"C#C[C@]1(O)CC[C@H]2[C@@H]3CC[C@H]4C[C@H](O)CC[C@]4(C)[C@H]3CC[C@@]21C [Form III, 17α-ethynyl-5α-androstane-3α,17β-diol]",conversion of crystalline form (XRPD),"[1]; dissolved in MeOH at 65° C., water added, cooled to 20° C. over 2 hours, also slurry in 1:1 or 3:1 methanol:water",has converted to Form I
same,relative thermodynamic stability of polymorphic forms,[2]; provided not exposed to methanol-water,most thermodynamically stable polymorphic form
"C#C[C@]1(O)CC[C@H]2[C@@H]3CC[C@H]4C[C@H](O)CC[C@]4(C)[C@H]3CC[C@@]21C [Form V, 17α-ethynyl-5α-androstane-3α,17β-diol]",polymorphic transition on prolonged standing (XRPD reanalysis),[3]; prolonged standing,undergone a polymorphic transition to Form III
"C#C[C@]1(O)CC[C@H]2[C@@H]3CC[C@H]4C[C@H](O)CC[C@]4(C)[C@H]3CC[C@@]21C [Compound 1, 17-Ethynyl-10R,13S-dimethyl-2,3,4,5S,6,7,8R,9S,10,11,12,13,14S,15,16,17-hexadecahydro-1H-cyclopenta[a]phenanthrene-3S,17S-diol]",mean tumor volume in the animals that developed tumors,LNCaP tumor cells; 0.4 mg/mouse/day ip,34 mm^3
same,mean tumor volume in the animals that developed tumors,LNCaP tumor cells; 1 mg/mouse/day ip,4 mm^3
same,tumor incidence (compared to vehicle),"LNCaP tumor cells; 1 mg/mouse/day ip, p=0.006, n=11",significant reduction in tumor incidence
same,mean tumor volume in the animals that developed tumors,LNCaP tumor cells; 4 mg/mouse/day ip,0 mm^3
same,tumor incidence (compared to vehicle),"LNCaP tumor cells; 4 mg/mouse/day ip, p<0.001, n=12",significant reduction in tumor incidence
same,tumor volume,"LNCaP tumor cells; all three dose groups (4, 1, 0.4 mg/mouse/day ip, 28 days)",decreases in tumor volume apparent
same,time to a measurable tumor volume,"LNCaP tumor cells; three treated groups (4, 1, 0.4 mg/mouse/day ip), p<0.01",statistically significant delay
same,mice with a tumor that became non-measurable by Day 15,established LNCaP tumors,two
same,growth of established tumors (tumor volume),"established LNCaP tumors; tumors 15-25 mm^3 at start, p<0.001 vs vehicle",significantly blocked the growth of tumors
same,percent of mice that reduced their tumor volumes by 20% or more,"established LNCaP tumors; vs vehicle, p<0.0294",significantly greater percent of mice
same,number of cells in G1,LNCaP Cells [4],rise in the number of cells in G1
same,percentage of apoptotic LNCaP cells,LNCaP Cells [5],increase in the percentage of apoptotic LNCaP cells
same,time to a new tumor as compared to vehicle,"[6]; 28 consecutive days of treatment, 28 days of observation, p<0.001",longer time to a new tumor
same,time to new tumor compared with TAXOTERE,"[6]; Compound 1 at 4 mg, p=0.042",outperformed TAXOTERE™
same,tumor burden by volume compared with vehicle,[6]; Day 7 on: p<0.001,less tumor burden than for the vehicle treated group
same,median time to new tumor,"[6]; from first day of dosing, vehicle 10 days",at least 56 days
same,delay to the occurrence of a second tumor vs vehicle,[6]; from median times to new tumor,at least a five fold delay
"C#C[C@]1(O)CC[C@H]2[C@@H]3CC[C@H]4C[C@H](O)CC[C@]4(C)[C@H]3CC[C@@]21C [amorphous Compound 1, 17-ethynyl-5α-androstane-3α,17β-diol]",conversion of amorphous material to crystalline form,[2]; vapor stressing at high humidity,will convert back to Form III
"C#C[C@]1(O)CC[C@H]2[C@@H]3CC[C@H]4C[C@H](O)CC[C@]4(C)[C@H]3CC[C@@]21C [Form VI, 17α-ethynyl-5α-androstane-3α,17β-diol]",desolvation on standing (DTA/TGA reanalysis),[3]; prolonged standing at ambient temperature and pressure,no TGA weight loss and no desolvation events in DTA
"C#C[C@]1(O)CC[C@H]2[C@@H]3CC[C@H]4C[C@H](O)CC[C@]4(C)[C@H]3CC[C@@]21C [Form I, 17α-ethynyl-5α-androstane-3α,17β-diol]",relative stability of polymorphic forms,"[1]; methanol-water, slurry seeded with Forms IV-VIII, 5 da at about 65° C. or 7 da at about 5° C.",most stable polymorphic form in methanol-water
